“And” between values parts separate entries of the source, which are not always exact repeats. Equal values may be shown once. Inconclusive results and toxic doses are left out. How the source made its calls: active means survival T/C of 150% or more; inactive means T/C below 125% in these data.
System: P388 leukemia ip, CD2F1 mice, survival T/C
Assay: NCI In Vivo Anticancer Drug Screen. Data for tumor model P388 Leukemia (intraperitoneal) in CD2F1 (CDF1) mice
Details: endpoint: median survival time, higher = longer survival
Summary of the method: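 Mice carrying the transplanted tumor received test compound or vehicle. Survival was recorded in each group, and the value is the treated-group measurement divided by that of the vehicle-treated control group.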

[1] = dose: 100.0 mg/kg/injection, schedule: Q04DX002 (ip), vehicle: Klucel (hydroxypropylcellulose) (HPC)
[2] = dose: 200.0 mg/kg/injection, schedule: Q04DX002 (ip), vehicle: Klucel (hydroxypropylcellulose) (HPC)
[3] = dose: 400.0 mg/kg/injection, schedule: Q04DX002 (ip), vehicle: Klucel (hydroxypropylcellulose) (HPC)
[4] = dose: 1.87 mg/kg/injection, schedule: Q01DX005 (ip), vehicle: saline with Tween-80
[5] = dose: 3.75 mg/kg/injection, schedule: Q01DX005 (ip), vehicle: saline with Tween-80
[6] = dose: 7.5 mg/kg/injection, schedule: Q01DX005 (ip), vehicle: saline with Tween-80
[7] = dose: 60.0 mg/kg/injection, schedule: Q01DX005 (ip), vehicle: saline with Tween-80
[8] = dose: 240.0 mg/kg/injection, schedule: Q01DX005 (ip), vehicle: saline with Tween-80
[9] = dose: 25.0 mg/kg/injection, schedule: Q01DX005 (ip), vehicle: saline with Tween-80
[10] = dose: 50.0 mg/kg/injection, schedule: Q01DX005 (ip), vehicle: saline with Tween-80
[11] = dose: 100.0 mg/kg/injection, schedule: Q01DX005 (ip), vehicle: saline with Tween-80
[12] = dose: 200.0 mg/kg/injection, schedule: Q01DX005 (ip), vehicle: saline with Tween-80
[13] = dose: 120.0 mg/kg/injection, schedule: Q01DX005 (ip), vehicle: saline with Tween-80

Measured: T/C

COc1ccc(C2=C(Cl)C(=O)N(c3cccc(Cl)c3)C(=O)C2(Cl)Cl)cc1
inactive: [1] 100 % of control and 86 % of control (2×) | [2] 104 % of control and 91 % of control and 97 % of control | [3] 100 % of control and 122 % of control and 90 % of control | dose: 600.0 mg/kg/injection, schedule: Q04DX002 (ip), vehicle: Klucel (hydroxypropylcellulose) (HPC) 98 % of control and 109 % of control

COc1ccc(C(=O)C(CCC(=O)/C=C/c2ccccc2)S(C)(=O)=O)cc1 (centres undefined)
inactive: dose: 50.0 mg/kg/injection, schedule: Q01DX005 (ip), vehicle: Klucel (hydroxypropylcellulose) (HPC) 105 % of control | dose: 100.0 mg/kg/injection, schedule: Q01DX005 (ip), vehicle: Klucel (hydroxypropylcellulose) (HPC) 99 % of control | dose: 200.0 mg/kg/injection, schedule: Q01DX005 (ip), vehicle: Klucel (hydroxypropylcellulose) (HPC) 87 % of control

CC(C)N1CCOC(c2cccc(C(F)(F)F)c2)C1 (centres undefined)
inactive: dose: 50.0 mg/kg/injection, schedule: Q01DX009 (ip), vehicle: saline 101 % of control | dose: 100.0 mg/kg/injection, schedule: Q01DX009 (ip), vehicle: saline 99 % of control

O=C(Nc1ncnc2nc[nH]c12)c1ccccc1
inactive: dose: 50.0 mg/kg/injection, schedule: Q01DX009 (ip), vehicle: Klucel (hydroxypropylcellulose) (HPC) 107 % of control | dose: 100.0 mg/kg/injection, schedule: Q01DX009 (ip), vehicle: Klucel (hydroxypropylcellulose) (HPC) 97 % of control | dose: 200.0 mg/kg/injection, schedule: Q01DX009 (ip), vehicle: Klucel (hydroxypropylcellulose) (HPC) 101 % of control | dose: 400.0 mg/kg/injection, schedule: Q01DX009 (ip), vehicle: Klucel (hydroxypropylcellulose) (HPC) 112 % of control

CCCCCCCCCCCCCCCCCc1cccc(OC)c1
inactive: dose: 7.5 mg/kg/injection, schedule: Q01DX009 (ip), vehicle: saline with Tween-80 95 % of control | dose: 15.0 mg/kg/injection, schedule: Q01DX009 (ip), vehicle: saline with Tween-80 97 % of control | dose: 30.0 mg/kg/injection, schedule: Q01DX009 (ip), vehicle: saline with Tween-80 110 % of control

O=[N+]([O-])c1cccn2nc(C3OC(CO)C(O)C3O)nc12 (centres undefined)
inactive: dose: 6.25 mg/kg/injection, schedule: Q01DX009 (ip), vehicle: water 109 % of control | dose: 12.5 mg/kg/injection, schedule: Q01DX009 (ip), vehicle: water 104 % of control | dose: 25.0 mg/kg/injection, schedule: Q01DX009 (ip), vehicle: water 113 % of control | dose: 50.0 mg/kg/injection, schedule: Q01DX009 (ip), vehicle: water 98 % of control | dose: 100.0 mg/kg/injection, schedule: Q01DX009 (ip), vehicle: water 109 % of control

O=[N+]([O-])/N=c1/nc2scc(-c3ccc([N+](=O)[O-])cc3)n2s1
inactive: [4] 99 % of control | [5] 107 % of control | [6] 99 % of control and 97 % of control | dose: 30.0 mg/kg/injection, schedule: Q01DX005 (ip), vehicle: saline with Tween-80 91 % of control | [7] 106 % of control | [8] 87 % of control

C=C(C)C1CC2=C(C(=O)OC)C=C(O2)C(C(=C)C)C2OC(=O)/C(=C\C1O)C2O (centres undefined)
inactive: dose: 4.0 mg/kg/injection, schedule: Q01DX005 (ip), vehicle: saline + alcohol 103 % of control | dose: 8.0 mg/kg/injection, schedule: Q01DX005 (ip), vehicle: saline + alcohol 103 % of control | dose: 16.0 mg/kg/injection, schedule: Q01DX005 (ip), vehicle: saline + alcohol 99 % of control | dose: 32.0 mg/kg/injection, schedule: Q01DX005 (ip), vehicle: saline + alcohol 99 % of control | dose: 64.0 mg/kg/injection, schedule: Q01DX005 (ip), vehicle: saline + alcohol 101 % of control

c1ccc2c(c1)oc1cc3c(cc12)n1nnnc1c1cccn31
inactive: [9] 92 % of control | [10] 97 % of control | [11] 100 % of control | [12] 100 % of control

Cc1cc(C)c(CCl)cc1CCl
inactive: dose: 20.0 mg/kg/injection, schedule: Q04DX003 (ip), vehicle: saline with Tween-80 113 % of control | dose: 40.0 mg/kg/injection, schedule: Q04DX003 (ip), vehicle: saline with Tween-80 118 % of control | dose: 80.0 mg/kg/injection, schedule: Q04DX003 (ip), vehicle: saline with Tween-80 90 % of control

CC(N=c1cc2n(-c3ccc(Cl)cc3)c3ccccc3nc-2cc1Nc1ccc(Cl)cc1)c1ccccc1 (centres undefined)
inactive: [4] 98 % of control | [5] 101 % of control | [6] 104 % of control and 86 % of control | [8] 88 % of control

Cc1cc(C)n(-c2ccnc(-n3nc(C)cc3C)n2)n1
inactive: dose: 100.0 mg/kg/injection, schedule: Q04DX003 (ip), vehicle: saline 104 % of control | dose: 200.0 mg/kg/injection, schedule: Q04DX003 (ip), vehicle: saline 114 % of control | dose: 400.0 mg/kg/injection, schedule: Q04DX003 (ip), vehicle: saline 101 % of control

O=C(O)c1cc([N+](=O)[O-])ccc1Nc1ccccc1
inactive: dose: 6.25 mg/kg/injection, schedule: Q01DX009 (ip), vehicle: suspension in saline 108 % of control and 90 % of control | dose: 12.5 mg/kg/injection, schedule: Q01DX009 (ip), vehicle: suspension in saline 104 % of control | dose: 25.0 mg/kg/injection, schedule: Q01DX009 (ip), vehicle: suspension in saline 100 % of control and 90 % of control | dose: 50.0 mg/kg/injection, schedule: Q01DX009 (ip), vehicle: suspension in saline 111 % of control and 91 % of control

CCc1c(C(=O)OC)c(C(=O)OC)c(-c2ccccc2)n1CCn1c(CC)c(C(=O)OC)c(C(=O)OC)c1-c1ccccc1
inactive: dose: 60.0 mg/kg/injection, schedule: Q01DX005 (ip), vehicle: Klucel (hydroxypropylcellulose) (HPC) 96 % of control | dose: 120.0 mg/kg/injection, schedule: Q01DX005 (ip), vehicle: Klucel (hydroxypropylcellulose) (HPC) 91 % of control | dose: 240.0 mg/kg/injection, schedule: Q01DX005 (ip), vehicle: Klucel (hydroxypropylcellulose) (HPC) 93 % of control

CCOC(=O)c1c[nH]c2c(=O)n(C)c(=O)[nH]c12
inactive: dose: 100.0 mg/kg/injection, schedule: Q04DX003 (ip), vehicle: saline with Tween-80 93 % of control | dose: 200.0 mg/kg/injection, schedule: Q04DX003 (ip), vehicle: saline with Tween-80 100 % of control

C=C(c1ccc2nc(NC(=O)OC)[nH]c2c1)c1cccs1
inactive: [9] 108 % of control | [10] 99 % of control | [11] 98 % of control | [12] 100 % of control

Cc1nnc2c3nccnc3c(N)nn12
inactive: [7] 96 % of control | [13] 104 % of control | [8] 104 % of control

CC1CC(c2ccccc2)(c2ccccc2)CN1C (centres undefined)
inactive: dose: 12.5 mg/kg/injection, schedule: Q01DX005 (ip), vehicle: saline with Tween-80 105 % of control | [9] 102 % of control | [10] 102 % of control and 103 % of control

CC(=O)OB(OC(C)=O)O[B-]12Oc3ccccc3C=[N+]1c1ccccc1S2 (centres undefined)
inactive: dose: 100.0 mg/kg/injection, schedule: Q04DX002 (ip), vehicle: saline with Tween-80 106 % of control | dose: 200.0 mg/kg/injection, schedule: Q04DX002 (ip), vehicle: saline with Tween-80 97 % of control | dose: 400.0 mg/kg/injection, schedule: Q04DX002 (ip), vehicle: saline with Tween-80 92 % of control

CS(C)(=O)=NS(=O)(=O)c1ccc([N+](=O)[O-])cc1
inactive: [1] 100 % of control | [2] 95 % of control | [3] 96 % of control

COC(=O)c1cc(Nc2ccccc2)c2ncccc2c1O
inactive: [7] 92 % of control | [13] 98 % of control | [8] 98 % of control

Source: PubChem BioAssay AID330 (DTP/NCI, 2004)
